Results on three compounds are retold here after ChEMBL document CHEMBL1155604, “New norditerpenoid alkaloids from Aconitum falconeri” (J Nat Prod, 2000).

The source made the active and inactive calls. The rule behind the calls is not given here.

Test [1] concerns Electrophorus electricus. Kind of test: (§1) Inhibition of electric eel acetylcholinesterase type VI-S after 30 mins by modified Ellman's assay. Background: DTNB colorimetry detects thiols as they appear.
Test [2] can be described thus: as §1. Set-up: species or system Electrophorus electricus.

Regarding `CCO[C@]12C[C@H](OC)[C@@]3(O)C[C@H]([C@@H]1[C@H]3OC(=O)c1ccc(OC)c(OC)c1)[C@@]13C4[C@@H]2[C@H](OC)[C@@H]1[C@](COC)(CN4CC)[C@H](O)C[C@@H]3OC`, in test [1], the outcome was inactive.

The IC50 is the concentration that inhibits the measured activity by half. The low end stands for greater potency, the high end for weaker potency. As for `COC[C@]12CN(C=O)C3[C@@H]4[C@H](OC)[C@H]1[C@@]3([C@@H](OC)C[C@H]2O)[C@@H]1C[C@]2(O)[C@@H](OC)C[C@@]4(OC(C)=O)[C@H]1[C@H]2OC(=O)c1ccc(OC)c(OC)c1` [FALEOCONITINE], the IC50 in test [2] was 293 µM.

The compound `CCN1C[C@]2(COC)[C@H](O)C[C@H](OC)[C@]34C1[C@H]([C@H](OC)[C@H]23)[C@@]1(OC(C)=O)C[C@H](OC)[C@@]2(O)C[C@@H]4[C@@H]1[C@H]2OC(=O)c1ccc(OC)c(OC)c1` [PSEUDACONITINE] came in with an IC50 in test [2] of 278 µM.
